Reference: US11225465B2, “Albicidin derivatives, their use and synthesis” (TECHNISCHE UNIVERSITÄT BERLIN, priority 2017, dated 2022)

How the values were obtained:
Assay in all cases: MHK against further strains (Table 2)
Format in all cases: cell-based
[1] = test system: Staphylococcus aureus PEG 13-18-19; details: Nr. 26 Staphylococcus aureus PEG 13-18-19, clinical isolate
Experimental: (§1) The tests were performed using the micro dilution method.
(§2) The determination of MIC values was performed according to the ninth edition of the Approved Standard M07-A9 (CLSI. Methods for Dilution Antimicrobial Susceptibility Tests for Bacteria That Grow Aerobically; Approved Standard—Ninth Edition. CLSI document M07-A9. Wayne, Pa.: Clinical and Laboratory Standards Institute; 2012.)

[2] = test system: Acinetobacter baumannii PEG 10-12-26; details: Nr. 22 Acinetobacter baumannii PEG 10-12-26, clinical isolate
Experimental: as §1, §2

[3] = test system: Escherichia coli 100-2-56; details: Nr. 3 Escherichia coli 100-2-56, clinical isolate
Experimental: as §1, §2

[4] = test system: Klebsiella pneumoniae PEG-10-48-8; details: Nr. 12 Klebsiella pneumoniae PEG-10-48-8, clinical isolate
Experimental: as §1, §2

[5] = test system: Pseudomonas aeruginosa PEG-10-47-57; details: Nr. 20 Pseudomonas aeruginosa PEG-10-47-57, clinical isolate
Experimental: as §1, §2

[6] = test system: Pseudomonas aeruginosa PEG-10-2-61; details: Nr. 7 Pseudomonas aeruginosa PEG-10-2-61, clinical isolate
Experimental: as §1, §2

[7] = test system: Acinetobacter baumannii PEG 10-57-24; details: Nr. 24 Acinetobacter baumannii PEG 10-57-24, clinical isolate
Experimental: as §1, §2

[8] = test system: Enterobacter aerogenes 220-1-22; details: Nr. 18 Enterobacter aerogenes 220-1-22, clinical isolate
Experimental: as §1, §2

[9] = test system: Klebsiella pneumoniae 310-1-54; details: Nr. 14 Klebsiella pneumoniae 310-1-54, clinical isolate
Experimental: as §1, §2

[10] = test system: Klebsiella pneumoniae PEG-10-90-74; details: Nr. 5 Klebsiella pneumoniae PEG-10-90-74, clinical isolate; KBE/ml 4.00E+05
Experimental: as §1, §2

[11] = test system: Escherichia coli ATCC 25922; details: Nr. 1 Escherichia coli ATCC 25922; KBE/ml 2.80E+05
Experimental: as §1, §2

[12] = test system: Enterobacter asburiae PEG-13-74-62; details: Nr. 19 Enterobacter asburiae PEG-13-74-62, clinical isolate; KBE/ml 8.20E+05
Experimental: as §1, §2

[13] = test system: Pseudomonas aeruginosa PEG-10-44-76; details: Nr. 21 Pseudomonas aeruginosa PEG-10-44-76, clinical isolate
Experimental: as §1, §2

[14] = test system: Klebsiella pneumoniae PEG-10-20-4; details: Nr. 4 Klebsiella pneumoniae PEG-10-20-4, clinical isolate
Experimental: as §1, §2

[15] = test system: Enterococcus faecium PEG 13-17-59; details: Nr. 29 Enterococcus faecium PEG 13-17-59, clinical isolate
Experimental: as §1, §2

[16] = test system: Klebsiella pneumoniae PEG-10-75-61; details: Nr. 13 Klebsiella pneumoniae PEG-10-75-61, clinical isolate; KBE/ml 4.00E+05
Experimental: as §1, §2

[17] = test system: Escherichia coli 100-2-49; details: Nr. 2 Escherichia coli 100-2-49, clinical isolate; KBE/ml 3.80E+05
Experimental: as §1, §2

[18] = test system: Escherichia coli PEG 10-79-22; details: Nr. 11 Escherichia coli PEG 10-79-22, clinical isolate
Experimental: as §1, §2

[19] = test system: Pseudomonas aeruginosa ATCC 27853; details: Nr. 6 Pseudomonas aeruginosa ATCC 27853; KBE/ml 5.60E+05
Experimental: as §1, §2

[20] = test system: Enterococcus faecium PEG 13-73-65; details: Nr. 30 Enterococcus faecium PEG 13-73-65, clinical isolate
Experimental: as §1, §2

[21] = test system: Enterobacter cloacae PEG-10-52-78; details: Nr. 17 Enterobacter cloacae PEG-10-52-78, clinical isolate
Experimental: as §1, §2

[22] = test system: Staphylococcus aureus ATCC 29213; details: Nr. 8 Staphylococcus aureus ATCC 29213; KBE/ml 6.60E+05
Experimental: as §1, §2

[23] = test system: Staphylococcus aureus PEG 10-38-22; details: Nr. 9 Staphylococcus aureus PEG 10-38-22, clinical isolate
Experimental: as §1, §2

[24] = test system: Escherichia coli PEG 10-2-81; details: Nr. 10 Escherichia coli PEG 10-2-81, clinical isolate
Experimental: as §1, §2

[25] = test system: Klebsiella oxytoca PEG-10-75-18; details: Nr. 15 Klebsiella oxytoca PEG-10-75-18, clinical isolate
Experimental: as §1, §2

[26] = test system: Acinetobacter baumannii PEG 10-57-31; details: Nr. 23 Acinetobacter baumannii PEG 10-57-31, clinical isolate; KBE/ml 2.60E+05
Experimental: as §1, §2

[27] = test system: Klebsiella oxytoca PEG-10-45-54; details: Nr. 16 Klebsiella oxytoca PEG-10-45-54, clinical isolate; KBE/ml 4.40E+05
Experimental: as §1, §2

[28] = test system: Acinetobacter baumannii PEG 10-86-5; details: Nr. 25 Acinetobacter baumannii PEG 10-86-5, clinical isolate; KBE/ml 2.00E+05
Experimental: as §1, §2

[29] = test system: Enterococcus faecium PEG 13-9-13; details: Nr. 28 Enterococcus faecium PEG 13-9-13, clinical isolate
Experimental: as §1, §2

[30] = test system: Staphylococcus aureus PEG 13-71-26; details: Nr. 27 Staphylococcus aureus PEG 13-71-26, clinical isolate
Experimental: as §1, §2

SMILES	MHK [1]	MHK [2]	MHK [3]	MHK [4]	MHK [5]	MHK [6]	MHK [7]	MHK [8]	MHK [9]	MHK [10]	MHK [11]	MHK [12]	MHK [13]	MHK [14]	MHK [15]	MHK [16]	MHK [17]	MHK [18]	MHK [19]	MHK [20]	further results
COc1c(NC(=O)c2ccc(NC(=O)c3ccc(NC(=O)C(Cc4c[nH]nn4)NC(=O)c4ccc(NC(=O)/C(C)=C/c5ccc(O)cc5)cc4)cc3)c(OC)c2O)ccc(C(=O)O)c1O [Compound 3, L-Azahis-Albicidin]	0.5 mg/L	16 mg/L	0.25 mg/L	32 mg/L	4 mg/L	8 mg/L	1 mg/L	4 mg/L	32 mg/L	32 mg/L	0.008 mg/L	32 mg/L	0.5 mg/L	32 mg/L	8 mg/L	32 mg/L	0.063 mg/L	0.063 mg/L	1 mg/L	8 mg/L	MHK [21]: 32 mg/L; MHK [22]: 0.5 mg/L; MHK [23]: 2 mg/L; MHK [24]: 0.063 mg/L; MHK [25]: 8 mg/L; MHK [26]: 32 mg/L; MHK [27]: 0.5 mg/L; MHK [28]: 4 mg/L; MHK [29]: 8 mg/L; MHK [30]: 0.125 mg/L
COc1c(NC(=O)c2ccc(NC(=O)c3ccc(NC(=O)[C@@H](CN(C)C)NC(=O)c4ccc(NC(=O)/C(C)=C/c5ccc(O)cc5)cc4)cc3)c(OC)c2O)ccc(C(=O)O)c1O [Compound 16, D-DMDAP-Albicidin]	32 mg/L	32 mg/L	32 mg/L	32 mg/L	32 mg/L	32 mg/L	32 mg/L	32 mg/L	32 mg/L	32 mg/L	16 mg/L	32 mg/L	32 mg/L	32 mg/L	32 mg/L	32 mg/L	32 mg/L	32 mg/L	32 mg/L	32 mg/L	MHK [21]: 32 mg/L; MHK [22]: 32 mg/L; MHK [23]: 32 mg/L; MHK [24]: 32 mg/L; MHK [25]: 32 mg/L; MHK [26]: 32 mg/L; MHK [27]: 32 mg/L; MHK [28]: 32 mg/L; MHK [29]: 32 mg/L; MHK [30]: 32 mg/L
